Assay results reported in BigSolDB 2.1.

## CC[C@H](C)[C@H](N)C(=O)O
In 1,4-dioxane, 288.15 K
  solubility (mole fraction): 0.00118
In 1,4-dioxane, 293.15 K
  solubility (mole fraction): 0.00132
In 1,4-dioxane, 298.15 K
  solubility (mole fraction): 0.00146
In 1,4-dioxane, 303.15 K
  solubility (mole fraction): 0.00172
In 1,4-dioxane, 308.15 K
  solubility (mole fraction): 0.00195
In 1,4-dioxane, 313.15 K
  solubility (mole fraction): 0.00226
In 1,4-dioxane, 318.15 K
  solubility (mole fraction): 0.00258
In 1,4-dioxane, 323.15 K
  solubility (mole fraction): 0.00303
In 1,4-dioxane, 328.15 K
  solubility (mole fraction): 0.00339
In 2-butanone, 283.15 K
  solubility (mole fraction): 0.000223
In 2-butanone, 288.15 K
  solubility (mole fraction): 0.000324
In 2-butanone, 293.15 K
  solubility (mole fraction): 0.000415
In 2-butanone, 298.15 K
  solubility (mole fraction): 0.000538
In 2-butanone, 303.15 K
  solubility (mole fraction): 0.000646
In 2-butanone, 308.15 K
  solubility (mole fraction): 0.000819
In 2-butanone, 313.15 K
  solubility (mole fraction): 0.000978
In 2-butanone, 318.15 K
  solubility (mole fraction): 0.00118
In 2-butanone, 323.15 K
  solubility (mole fraction): 0.00145
In acetone, 283.15 K
  solubility (mole fraction): 1.21e-05
In acetone, 288.15 K
  solubility (mole fraction): 1.47e-05
In acetone, 293.15 K
  solubility (mole fraction): 1.82e-05
In acetone, 298.15 K
  solubility (mole fraction): 2.04e-05
In acetone, 303.15 K
  solubility (mole fraction): 3.19e-05
In acetone, 308.15 K
  solubility (mole fraction): 4.37e-05
In acetone, 313.15 K
  solubility (mole fraction): 6.14e-05
In acetone, 318.15 K
  solubility (mole fraction): 8.28e-05
In acetone, 323.15 K
  solubility (mole fraction): 0.000132
In acetonitrile, 283.15 K
  solubility (mole fraction): 0.000153
In acetonitrile, 288.15 K
  solubility (mole fraction): 0.000185
In acetonitrile, 293.15 K
  solubility (mole fraction): 0.000276
In acetonitrile, 298.15 K
  solubility (mole fraction): 0.000303
In acetonitrile, 303.15 K
  solubility (mole fraction): 0.000374
In acetonitrile, 308.15 K
  solubility (mole fraction): 0.000451
In acetonitrile, 313.15 K
  solubility (mole fraction): 0.000525
In acetonitrile, 318.15 K
  solubility (mole fraction): 0.000582
In acetonitrile, 323.15 K
  solubility (mole fraction): 0.0007
In ethanol, 283.15 K
  solubility (mole fraction): 0.000199
In ethanol, 288.15 K
  solubility (mole fraction): 0.000227
In ethanol, 293.15 K
  solubility (mole fraction): 0.000285
In ethanol, 298.15 K
  solubility (mole fraction): 0.000363
In ethanol, 303.15 K
  solubility (mole fraction): 0.000532
In ethanol, 308.15 K
  solubility (mole fraction): 0.000716
In ethanol, 313.15 K
  solubility (mole fraction): 0.000881
In ethanol, 318.15 K
  solubility (mole fraction): 0.00101
In ethanol, 323.15 K
  solubility (mole fraction): 0.00118
In ethyl acetate, 283.15 K
  solubility (mole fraction): 0.000398
In ethyl acetate, 288.15 K
  solubility (mole fraction): 0.000441
In ethyl acetate, 293.15 K
  solubility (mole fraction): 0.000482
In ethyl acetate, 298.15 K
  solubility (mole fraction): 0.000544
In ethyl acetate, 303.15 K
  solubility (mole fraction): 0.000609
In ethyl acetate, 308.15 K
  solubility (mole fraction): 0.000656
In ethyl acetate, 313.15 K
  solubility (mole fraction): 0.000722
In ethyl acetate, 318.15 K
  solubility (mole fraction): 0.000803
In ethyl acetate, 323.15 K
  solubility (mole fraction): 0.000891
In isobutanol, 283.15 K
  solubility (mole fraction): 0.00106
In isobutanol, 288.15 K
  solubility (mole fraction): 0.00125
In isobutanol, 293.15 K
  solubility (mole fraction): 0.0015
In isobutanol, 298.15 K
  solubility (mole fraction): 0.00186
In isobutanol, 303.15 K
  solubility (mole fraction): 0.00216
In isobutanol, 308.15 K
  solubility (mole fraction): 0.00246
In isobutanol, 313.15 K
  solubility (mole fraction): 0.00298
In isobutanol, 318.15 K
  solubility (mole fraction): 0.00346
In isobutanol, 323.15 K
  solubility (mole fraction): 0.00394
In isopropanol, 283.15 K
  solubility (mole fraction): 0.00147
In isopropanol, 288.15 K
  solubility (mole fraction): 0.00173
In isopropanol, 293.15 K
  solubility (mole fraction): 0.00207
In isopropanol, 298.15 K
  solubility (mole fraction): 0.00241
In isopropanol, 303.15 K
  solubility (mole fraction): 0.00285
In isopropanol, 308.15 K
  solubility (mole fraction): 0.0034
In isopropanol, 313.15 K
  solubility (mole fraction): 0.00394
In isopropanol, 318.15 K
  solubility (mole fraction): 0.00454
In isopropanol, 323.15 K
  solubility (mole fraction): 0.00494
In methanol, 283.15 K
  solubility (mole fraction): 0.000793
In methanol, 288.15 K
  solubility (mole fraction): 0.000814
In methanol, 293.15 K
  solubility (mole fraction): 0.000848
In methanol, 298.15 K
  solubility (mole fraction): 0.000891
In methanol, 303.15 K
  solubility (mole fraction): 0.000935
In methanol, 308.15 K
  solubility (mole fraction): 0.000984
In methanol, 313.15 K
  solubility (mole fraction): 0.00105
In methanol, 318.15 K
  solubility (mole fraction): 0.00114
In methanol, 323.15 K
  solubility (mole fraction): 0.00125
In methyl acetate, 283.15 K
  solubility (mole fraction): 0.00174
In methyl acetate, 288.15 K
  solubility (mole fraction): 0.00194
In methyl acetate, 293.15 K
  solubility (mole fraction): 0.00223
In methyl acetate, 298.15 K
  solubility (mole fraction): 0.00263
In methyl acetate, 303.15 K
  solubility (mole fraction): 0.00292
In methyl acetate, 308.15 K
  solubility (mole fraction): 0.00332
In methyl acetate, 313.15 K
  solubility (mole fraction): 0.00387
In methyl acetate, 318.15 K
  solubility (mole fraction): 0.00472
In methyl acetate, 323.15 K
  solubility (mole fraction): 0.00545
In n-butanol, 283.15 K
  solubility (mole fraction): 9.12e-05
In n-butanol, 288.15 K
  solubility (mole fraction): 0.000142
In n-butanol, 293.15 K
  solubility (mole fraction): 0.000221
In n-butanol, 298.15 K
  solubility (mole fraction): 0.000282
In n-butanol, 303.15 K
  solubility (mole fraction): 0.000372
In n-butanol, 308.15 K
  solubility (mole fraction): 0.000468
In n-butanol, 313.15 K
  solubility (mole fraction): 0.000585
In n-butanol, 318.15 K
  solubility (mole fraction): 0.00068
In n-butanol, 323.15 K
  solubility (mole fraction): 0.000838
In n-propanol, 283.15 K
  solubility (mole fraction): 0.000187
In n-propanol, 288.15 K
  solubility (mole fraction): 0.000226
In n-propanol, 293.15 K
  solubility (mole fraction): 0.000268
In n-propanol, 298.15 K
  solubility (mole fraction): 0.000349
In n-propanol, 303.15 K
  solubility (mole fraction): 0.000515
In n-propanol, 308.15 K
  solubility (mole fraction): 0.00069
In n-propanol, 313.15 K
  solubility (mole fraction): 0.000817
In n-propanol, 318.15 K
  solubility (mole fraction): 0.0009
In n-propanol, 323.15 K
  solubility (mole fraction): 0.00101
